# From US20210260010A1, “COMPOSITIONS AND METHODS FOR THE REDUCTION OR TREATMENT OF INFLAMMATION” (AXCELLA HEALTH INC., priority 2018, published 2021)
# Experiments:
# TNFα = assay: LPS-induced TNFα secretion in primary human monocyte-derived macrophages (ELISA); assay type: cell-based; parameters: TNFa Measurements Mean: unit not given here; conditions: for TNFa Measurements Mean: Donor 1, LPS 0.15 ng/mL; for TNFa Measurements Mean / Donor 2 TNFa Measurements Mean / Donor 3 TNFa Measurements Mean: baseline subtracted; for LPS-induced TNFα secretion: macrophages, 0.15 ng/mL LPS
# Procedure: Unpurified buffy coats (Research Blood Components) were carefully poured into 50 mL centrifuge tubes and diluted with room temperature Dulbecco's Phosphate Buffered Saline (dPBS) with Calcium and Magnesium (Gibco). Diluted buffy coats were further divided into four total 50 mL centrifuge tubes at 20 mL per tube. Lymphocyte Separation Medium (Corning) was carefully pipetted to the bottom of each centrifuge tube. Mixtures were centrifuged at 850× g for 32 minutes at 20° C. with 0 deceleration and acceleration.
# The PBMC layer was separated from other components after centrifugation and added to new 50 mL centrifuge tube containing 25 mL dPBS. Total volume was brought up to 50 mL with dPBS and centrifuged at 600×g for 10 minutes at 20° C. with acceleration of 9, deceleration of 5. Supernatant was carefully removed from cell pellets. The cell pellets were resuspended using 10 mL dPBS. Total volume was then brought up to 50 mL using dPBS and centrifuged at 450×g for 5 min at 20° C. with acceleration of 9, deceleration of 9. The supernatant removal and cell pellet resuspension was repeated again.
# The supernatant was then carefully removed from cell pellets. Cell pellets were resuspended in 10 mL dPBS without calcium or magnesium and filtered through a 70 uM cell strainer. The total PBMC number was determined using a Cellometer K2 automated cell counter. A total of 5E6 cells were saved for flow cytometric analysis. Remaining cells were centrifuged at 490×g for 5 minutes at 20° C. with acceleration of 9, deceleration of 9.
# CD14+ cells were selected using EasySep™ Human CD14 Positive Selection Kit II ([…] Technologies). Cells were resuspended in cold EasySep™ Buffer ([…] Technologies) at 1×10^8 cells/mL. A total of 100 uL/mL EasySep™ Human CD14 Positive Selection Cocktail II was added to the cell suspension, mixed, and incubated at room temperature for 10 minutes. A total of 100 uL/mL RapidSpheres were added to the mixture and incubated at room temperature for 3 minutes after mixing, then RoboSep buffer was added to bring up the total volume to 10 mL. The mixture in a 15 mL tube was placed in magnet and incubated at room temperature for 3 minutes. Supernatant was discarded and 10 mL fresh EasySep™ buffer was added to 15 mL tube. The addition of RoboSep buffer, mixing, and discarding of supernatant was repeated two more times.
# Negative and positive fractions were centrifuged at 490×g for 5 minutes at 20° C. with acceleration of 9, deceleration of 9, and resuspended in DMEM (Gibco) and 10% Heat Inactivated Fetal Bovine Serum (Atlanta Bio) and Penicillin/Streptomycin. Cells were counted and centrifuged again at 490× g for 5 minutes at 20° C. with acceleration of 9, deceleration of 9. After centrifugation, cell were resuspended in DMEM (Gibco) and 10% Heat Inactivated Fetal Bovine Serum (Atlanta Bio) and Penicillin/Streptomycin containing 500 U/mL […] and plated at 1-2×10^6 cells/mL on 10 cm tissue culture plates. Cells were kept in 37° C., 5% CO2 in between feedings/harvest.
# Cells were fed every 3-4 days by removing media and unattached cells, centrifuging at 490× g for 5 minutes at 20° C. with acceleration of 9, deceleration of 9, and resuspending in fresh DMEM (Gibco) and 10% Heat Inactivated Fetal Bovine Serum (Atlanta Bio) and Penicillin/Streptomycin containing GM-CSF. Resuspended cells were seeded back onto 10 cm tissue culture plates and incubated at 37° C., 5% CO2. Differentiated macrophages were used for subsequent experiments.
# Primary human PMBC derived macrophages were seeded on day 0 at 3.0E4 cells per well in 96-well microplates (ThermoFisher) in Dulbecco's Modified Eagle Medium (DMEM) (Gibco) supplemented with penicillin-streptomycin (Hyclone) and 10% heat inactivated fetal bovine serum (HI-FBS) (Atlanta Bio) and incubated overnight at 37° C., 5% CO2. On day 1, cells were washed once with 150 uL per well DPBS (Gibco) and treated with 75 uL of: • a. […]
# CCL18 = assay: IL-4 induced CCL18 secretion in primary human monocyte-derived macrophages (ELISA); assay type: cell-based; conditions: for Donor 1 CCL18 Measurements Mean / Donor 2 CCL18 Measurements Mean: relative to vehicle control; for CCL18 Measurements: Mean (fold change relative to vehicle control): IL-4 induced; for IL-4 induced CCL18 secretion (fold change relative to vehicle control): macrophages
# Procedure: Lymphocytes were purified from unpurified buffy coats (Research Blood Components) using Lymphocyte Separation Medium (Corning). After centrifugation, the PBMC layer was extracted and rinsed several times using Dulbecco's phosphate-buffered saline (DPBS; Gibco). After straining PBMCs through a 70 uM cell strainer, cells were resuspended and counted using a Cellometer K2 automated cell counter.
# CD14+ cells were selected using EasySep™ Human CD14 Positive Selection Kit II ([…] Technologies) according to manufacturer-supplied protocols. Following isolation CD14+ cells were seeded into 10 cm tissue culture plates and differentiated into macrophages using M-CSF (Peprotech).
# On day 0, primary human PBMC derived macrophages were seeded in Dulbecco's Modified Eagle Medium (DMEM) (Gibco) supplemented with penicillin-streptomycin (Hyclone) and 10% heat inactivated fetal bovine serum (HI-FBS) (Atlanta Bio) into 96-well microplates (ThermoFisher) and incubated overnight at 37° C., 5% CO2. On day 1, cells were washed once with DPBS and then treated with: • a. Amino acid free DMEM (US Biologicals) containing a defined custom amino acid concentration based on the mean physiological concentrations in blood based on values published in the Human Metabolome Database (HMDB), with 6 mM glucose, 1 mM sodium pyruvate, 10 mM HEPES, penicillin-streptomycin; or • b. The same medium described above with one amino acid or amino acid combination at various concentrations
# On day 2, cells were treated with the same mediums described above supplemented with recombinant human interleukin-4 (IL-4; Peprotech). Control wells were treated with tofacitinib (Tocris) and IL-4, PBS with IL-4, or phosphate buffered saline (PBS) alone.
# On day 3, the supernatant was collected and immediately frozen in −80° C. freezer. Cells were washed once with DPBS and viability was assessed using the WST-8 Cell Proliferation Cytotoxicity Assay (Dojindo) according to manufacturer-supplied protocol. Following the assay, cells were washed twice with PBS and fixed with 4% paraformaldehyde. Protein levels in supernatant samples were analyzed by ELISA for CCL18 using commercially available kits (R&D Systems) according to manufacturer-supplied protocols.
smiles,measurement,setting,value
"N=C(N)NCCC[C@H](N)C(=O)O [Arginine, L-Arginine]",TNFa Measurements Mean,TNFα; Conc. 109 μM (baseline),0
same,TNFa Measurements Mean,TNFα; Conc. 1088 μM,−24.33
same,TNFa Measurements Mean,TNFα; Conc. 2720 μM,5.12
same,TNFa Measurements Mean,TNFα; Conc. 5440 μM,62.06
same,Donor 2 TNFa Measurements Mean,"TNFα; Donor 2, Conc. 109 μM (baseline)",1.42E−14
same,Donor 2 TNFa Measurements Mean,"TNFα; Donor 2, Conc. 1088 μM",−12.7222
same,Donor 2 TNFa Measurements Mean,"TNFα; Donor 2, Conc. 2720 μM",−3.763
same,Donor 2 TNFa Measurements Mean,"TNFα; Donor 2, Conc. 5440 μM",−0.5738
same,Donor 3 TNFa Measurements Mean,"TNFα; Donor 3, Conc. 109 μM (baseline)",3.55E−15
same,Donor 3 TNFa Measurements Mean,"TNFα; Donor 3, Conc. 1088 μM",3.131
same,Donor 3 TNFa Measurements Mean,"TNFα; Donor 3, Conc. 2720 μM",−0.9669
same,Donor 3 TNFa Measurements Mean,"TNFα; Donor 3, Conc. 5440 μM",−1.767
same,Donor 1 CCL18 Measurements Mean,"CCL18; Donor 1, Conc. 109 μM",1.131 fold change
same,Donor 1 CCL18 Measurements Mean,"CCL18; Donor 1, Conc. 1088 μM",1.068 fold change
same,Donor 1 CCL18 Measurements Mean,"CCL18; Donor 1, Conc. 2720 μM",1.121 fold change
same,Donor 1 CCL18 Measurements Mean,"CCL18; Donor 1, Conc. 5440 μM",1.277 fold change
same,Donor 2 CCL18 Measurements Mean,"CCL18; Donor 2, Conc. 109 μM",0.9634 fold change
same,Donor 2 CCL18 Measurements Mean,"CCL18; Donor 2, Conc. 1088 μM",0.9846 fold change
same,Donor 2 CCL18 Measurements Mean,"CCL18; Donor 2, Conc. 2720 μM",1.031 fold change
same,Donor 2 CCL18 Measurements Mean,"CCL18; Donor 2, Conc. 5440 μM",1.089 fold change
same,CCL18 Measurements: Mean (fold change relative to vehicle control),"CCL18; Donor 3, Conc. 109 μM",1.138 fold change
same,CCL18 Measurements: Mean (fold change relative to vehicle control),"CCL18; Donor 3, Conc. 1088 μM",0.9131 fold change
same,CCL18 Measurements: Mean (fold change relative to vehicle control),"CCL18; Donor 3, Conc. 2720 μM",1.208 fold change
same,CCL18 Measurements: Mean (fold change relative to vehicle control),"CCL18; Donor 3, Conc. 5440 μM",1.206 fold change
"NC(=O)CC[C@H](N)C(=O)O [Glutamine, L-Glutamine]",TNFa Measurements Mean,TNFα; Conc. 749 μM (baseline),0
same,TNFa Measurements Mean,TNFα; Conc. 3747 μM,−45.7
same,TNFa Measurements Mean,TNFα; Conc. 11242 μM,−65.24
same,TNFa Measurements Mean,TNFα; Conc. 22484 μM,−103.07
same,Donor 2 TNFa Measurements Mean,"TNFα; Donor 2, Conc. 749 μM (baseline)",−9.5E−15
same,Donor 2 TNFa Measurements Mean,"TNFα; Donor 2, Conc. 3747 μM",9.338
same,Donor 2 TNFa Measurements Mean,"TNFα; Donor 2, Conc. 11242 μM",20.04
same,Donor 2 TNFa Measurements Mean,"TNFα; Donor 2, Conc. 22484 μM",11.5
same,Donor 3 TNFa Measurements Mean,"TNFα; Donor 3, Conc. 749 μM (baseline)",0
same,Donor 3 TNFa Measurements Mean,"TNFα; Donor 3, Conc. 3747 μM",1.936
same,Donor 3 TNFa Measurements Mean,"TNFα; Donor 3, Conc. 11242 μM",18
same,Donor 3 TNFa Measurements Mean,"TNFα; Donor 3, Conc. 22484 μM",29.14
same,LPS-induced TNFα secretion,TNFα; Donor 2,increased
same,LPS-induced TNFα secretion,TNFα; Donor 3,increased
same,Donor 1 CCL18 Measurements Mean,"CCL18; Donor 1, Conc. 749 μM",1.382 fold change
same,Donor 1 CCL18 Measurements Mean,"CCL18; Donor 1, Conc. 3747 μM",1.492 fold change
same,Donor 1 CCL18 Measurements Mean,"CCL18; Donor 1, Conc. 11242 μM",1.645 fold change
same,Donor 1 CCL18 Measurements Mean,"CCL18; Donor 1, Conc. 22484 μM",1.992 fold change
same,Donor 2 CCL18 Measurements Mean,"CCL18; Donor 2, Conc. 749 μM",1.4 fold change
same,Donor 2 CCL18 Measurements Mean,"CCL18; Donor 2, Conc. 3747 μM",1.559 fold change
same,Donor 2 CCL18 Measurements Mean,"CCL18; Donor 2, Conc. 11242 μM",1.857 fold change
same,Donor 2 CCL18 Measurements Mean,"CCL18; Donor 2, Conc. 22484 μM",2.219 fold change
same,CCL18 Measurements: Mean (fold change relative to vehicle control),"CCL18; Donor 3, Conc. 749 μM",1.56 fold change
same,CCL18 Measurements: Mean (fold change relative to vehicle control),"CCL18; Donor 3, Conc. 3747 μM",1.606 fold change
same,CCL18 Measurements: Mean (fold change relative to vehicle control),"CCL18; Donor 3, Conc. 11242 μM",2.428 fold change
same,CCL18 Measurements: Mean (fold change relative to vehicle control),"CCL18; Donor 3, Conc. 22484 μM",2.33 fold change
same,IL-4 induced CCL18 secretion (fold change relative to vehicle control),CCL18; Donor 1,significantly increased
same,IL-4 induced CCL18 secretion (fold change relative to vehicle control),CCL18; Donor 2,significantly increased
same,IL-4 induced CCL18 secretion (fold change relative to vehicle control),CCL18; Donor 3,significantly increased
